Assay results taken from the kinase profiling compilation of Christmann-Franck et al. (2016).

Experiments:
Experiment in all cases: KINOMEscan competition binding
Details in all cases: compound 0.5 µM
[1] = target: ZAP70 (human) (UniProt P43403)
[2] = target: MAP3K10 (human) (UniProt Q02779)
[3] = system: PIK3CA (human), P42336 [M1043I]
[4] = target: PDGFRB (human) (UniProt P09619)
[5] = target: MAP2K5 (human) (UniProt Q13163)
[6] = target: CSNK1D (human) (UniProt P48730)
[7] = target: AKT3 (human) (UniProt Q9Y243)
[8] = target: CSNK1G3 (human) (UniProt Q9Y6M4)
[9] = target: MAPK12 (human) (UniProt P53778)
[10] = target: PKN2 (human) (UniProt Q16513)
[11] = target: EPHA7 (human) (UniProt Q15375)
[12] = target: PRKG2 (human) (UniProt Q13237)
[13] = target: MAP3K7 (human) (UniProt O43318)
[14] = target: ACVR2B (human) (UniProt Q13705)
[15] = target: PIM3 (human) (UniProt Q86V86)
[16] = target: STK38 (human) (UniProt Q15208)
Chain of STK38 (human) (Q15208 whole entry, looked up): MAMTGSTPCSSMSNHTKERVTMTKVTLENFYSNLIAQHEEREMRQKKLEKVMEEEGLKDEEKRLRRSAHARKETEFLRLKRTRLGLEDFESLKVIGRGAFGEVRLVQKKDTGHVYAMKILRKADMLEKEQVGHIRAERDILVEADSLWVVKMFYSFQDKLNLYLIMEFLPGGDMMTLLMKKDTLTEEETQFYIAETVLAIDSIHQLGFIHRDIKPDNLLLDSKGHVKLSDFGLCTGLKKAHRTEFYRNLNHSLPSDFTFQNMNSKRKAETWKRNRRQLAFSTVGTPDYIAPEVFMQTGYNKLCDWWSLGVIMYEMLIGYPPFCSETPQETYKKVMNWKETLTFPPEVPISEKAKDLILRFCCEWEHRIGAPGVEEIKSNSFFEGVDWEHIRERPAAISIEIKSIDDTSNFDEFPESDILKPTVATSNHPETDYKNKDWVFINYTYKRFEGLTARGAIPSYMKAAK

[17] = target: MAP3K6 (human) (UniProt O95382)
Chain of MAP3K6 (human) (O95382 whole entry, looked up): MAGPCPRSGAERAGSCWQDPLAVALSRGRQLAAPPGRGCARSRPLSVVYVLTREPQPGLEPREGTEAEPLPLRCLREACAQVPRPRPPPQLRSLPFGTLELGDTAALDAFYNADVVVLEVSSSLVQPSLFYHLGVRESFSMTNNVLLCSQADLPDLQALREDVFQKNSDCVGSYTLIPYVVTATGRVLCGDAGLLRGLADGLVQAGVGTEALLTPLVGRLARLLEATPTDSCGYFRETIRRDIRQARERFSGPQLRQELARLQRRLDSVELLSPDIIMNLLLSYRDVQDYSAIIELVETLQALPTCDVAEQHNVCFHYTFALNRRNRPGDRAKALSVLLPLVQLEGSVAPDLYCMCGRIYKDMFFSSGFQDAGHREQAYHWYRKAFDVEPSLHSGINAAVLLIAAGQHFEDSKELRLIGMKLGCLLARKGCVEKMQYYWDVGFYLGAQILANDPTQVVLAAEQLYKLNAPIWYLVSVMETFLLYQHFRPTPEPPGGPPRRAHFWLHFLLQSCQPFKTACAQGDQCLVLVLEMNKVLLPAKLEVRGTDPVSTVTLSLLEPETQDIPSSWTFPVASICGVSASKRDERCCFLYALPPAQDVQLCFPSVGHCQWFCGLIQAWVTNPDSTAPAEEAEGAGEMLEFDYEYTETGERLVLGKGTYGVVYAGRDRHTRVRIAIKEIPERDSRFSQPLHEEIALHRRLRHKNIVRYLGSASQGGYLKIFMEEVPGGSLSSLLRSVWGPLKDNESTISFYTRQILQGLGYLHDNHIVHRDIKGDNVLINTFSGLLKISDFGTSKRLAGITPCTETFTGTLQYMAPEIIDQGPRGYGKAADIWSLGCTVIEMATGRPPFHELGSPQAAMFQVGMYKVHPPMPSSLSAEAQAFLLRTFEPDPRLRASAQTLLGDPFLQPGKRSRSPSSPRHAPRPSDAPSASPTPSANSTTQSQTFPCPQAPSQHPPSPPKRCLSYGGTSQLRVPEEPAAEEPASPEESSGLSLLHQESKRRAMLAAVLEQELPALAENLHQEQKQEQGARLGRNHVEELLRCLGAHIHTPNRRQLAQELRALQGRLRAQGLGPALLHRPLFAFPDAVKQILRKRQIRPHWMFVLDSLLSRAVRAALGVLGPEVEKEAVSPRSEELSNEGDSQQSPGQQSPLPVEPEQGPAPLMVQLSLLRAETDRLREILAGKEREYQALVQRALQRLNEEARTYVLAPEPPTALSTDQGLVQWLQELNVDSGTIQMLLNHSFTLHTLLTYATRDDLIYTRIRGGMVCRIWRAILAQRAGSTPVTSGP

[18] = target: DAPK2 (human) (UniProt Q9UIK4)
[19] = target: BRSK2 (human) (UniProt Q8IWQ3)
[20] = target: RPS6KA5 KD1 (human) (UniProt O75582)
[21] = target: PIK3CG (human) (UniProt P48736)
[22] = target: NTRK3 (human) (UniProt Q16288)
Chain of NTRK3 (human) (Q16288 whole entry, looked up): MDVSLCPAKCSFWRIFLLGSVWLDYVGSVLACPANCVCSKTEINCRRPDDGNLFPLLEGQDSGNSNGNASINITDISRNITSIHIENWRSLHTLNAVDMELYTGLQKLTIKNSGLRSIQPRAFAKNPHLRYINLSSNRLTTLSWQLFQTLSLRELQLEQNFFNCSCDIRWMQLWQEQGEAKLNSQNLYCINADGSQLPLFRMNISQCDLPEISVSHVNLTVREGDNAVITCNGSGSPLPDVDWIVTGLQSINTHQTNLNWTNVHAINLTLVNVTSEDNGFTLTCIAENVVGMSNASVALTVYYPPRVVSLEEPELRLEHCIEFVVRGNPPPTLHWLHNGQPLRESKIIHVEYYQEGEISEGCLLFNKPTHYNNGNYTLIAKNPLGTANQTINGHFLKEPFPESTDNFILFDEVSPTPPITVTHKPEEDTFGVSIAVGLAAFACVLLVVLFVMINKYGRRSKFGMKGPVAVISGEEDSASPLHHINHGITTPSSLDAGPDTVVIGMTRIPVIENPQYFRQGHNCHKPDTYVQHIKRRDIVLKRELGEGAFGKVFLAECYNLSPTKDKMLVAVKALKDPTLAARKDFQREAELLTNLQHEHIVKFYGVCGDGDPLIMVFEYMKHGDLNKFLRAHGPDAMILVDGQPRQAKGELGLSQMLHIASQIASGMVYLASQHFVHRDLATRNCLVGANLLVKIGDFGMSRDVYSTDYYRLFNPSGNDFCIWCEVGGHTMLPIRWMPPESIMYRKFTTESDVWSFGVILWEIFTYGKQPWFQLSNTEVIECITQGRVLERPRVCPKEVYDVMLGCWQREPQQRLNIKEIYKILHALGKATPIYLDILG

[23] = target: STK11 (human) (UniProt Q15831)
[24] = target: ULK3 (human) (UniProt Q6PHR2)
[25] = system: FGFR3 (human), P22607 [G697C]
[26] = target: TGFBR2 (human) (UniProt P37173)
[27] = target: SRPK3 (human) (UniProt Q9UPE1)
[28] = system: ABL1 (human), P00519 [M351T]
[29] = target: PI4KB (human) (UniProt Q9UBF8)
[30] = target: TAOK2 (human) (UniProt Q9UL54)
[31] = target: MLTK (human) (UniProt Q9NYL2)
[32] = system: PIK3CA (human), P42336 [E545A]
[33] = target: CAMK1D (human) (UniProt Q8IU85)
[34] = target: CAMK2B (human) (UniProt Q13554)
[35] = target: CAMK1G (human) (UniProt Q96NX5)
[36] = target: DSTYK (human) (UniProt Q6XUX3)
Chain of DSTYK (human) (Q6XUX3 whole entry, looked up): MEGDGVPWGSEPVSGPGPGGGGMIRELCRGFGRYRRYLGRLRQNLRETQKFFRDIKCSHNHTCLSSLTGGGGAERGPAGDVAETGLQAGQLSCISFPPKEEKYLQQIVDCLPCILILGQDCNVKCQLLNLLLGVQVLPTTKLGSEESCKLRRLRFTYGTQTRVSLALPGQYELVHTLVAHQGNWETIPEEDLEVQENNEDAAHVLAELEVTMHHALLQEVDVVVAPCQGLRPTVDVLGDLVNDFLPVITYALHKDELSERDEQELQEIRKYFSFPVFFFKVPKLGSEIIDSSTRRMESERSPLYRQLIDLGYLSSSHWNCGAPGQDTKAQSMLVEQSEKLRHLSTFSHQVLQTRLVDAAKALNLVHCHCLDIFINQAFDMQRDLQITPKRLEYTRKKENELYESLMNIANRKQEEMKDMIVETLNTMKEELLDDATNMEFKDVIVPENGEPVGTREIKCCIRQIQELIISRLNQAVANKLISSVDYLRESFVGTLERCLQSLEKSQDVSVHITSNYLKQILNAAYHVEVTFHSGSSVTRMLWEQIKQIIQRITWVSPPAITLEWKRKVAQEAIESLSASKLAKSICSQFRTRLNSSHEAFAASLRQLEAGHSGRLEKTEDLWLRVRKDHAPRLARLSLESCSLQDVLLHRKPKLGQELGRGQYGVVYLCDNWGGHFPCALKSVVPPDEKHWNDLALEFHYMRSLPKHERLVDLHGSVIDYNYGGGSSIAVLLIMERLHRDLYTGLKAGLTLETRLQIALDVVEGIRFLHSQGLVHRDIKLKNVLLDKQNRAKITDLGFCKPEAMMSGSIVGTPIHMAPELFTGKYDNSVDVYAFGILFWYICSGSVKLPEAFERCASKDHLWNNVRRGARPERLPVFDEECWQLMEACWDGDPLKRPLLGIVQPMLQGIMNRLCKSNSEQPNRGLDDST

[37] = target: AXL (human) (UniProt P30530)
[38] = target: STK25 (human) (UniProt O00506)
Chain of STK25 (human) (O00506 whole entry, looked up): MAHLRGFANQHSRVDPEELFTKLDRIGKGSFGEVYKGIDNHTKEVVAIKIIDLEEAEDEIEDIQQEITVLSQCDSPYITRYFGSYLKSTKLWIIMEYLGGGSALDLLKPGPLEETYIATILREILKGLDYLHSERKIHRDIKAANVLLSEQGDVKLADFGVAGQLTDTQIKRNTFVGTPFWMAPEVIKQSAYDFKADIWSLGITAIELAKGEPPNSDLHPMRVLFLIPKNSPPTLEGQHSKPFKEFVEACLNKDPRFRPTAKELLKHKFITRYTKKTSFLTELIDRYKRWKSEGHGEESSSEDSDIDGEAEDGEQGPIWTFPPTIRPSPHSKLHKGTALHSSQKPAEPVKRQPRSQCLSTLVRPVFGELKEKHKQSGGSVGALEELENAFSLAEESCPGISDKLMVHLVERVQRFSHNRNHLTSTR

[39] = target: FGFR3 (human) (UniProt P22607)
[40] = target: CLK1 (human) (UniProt P49759)
Chain of CLK1 (human) (P49759 whole entry, looked up): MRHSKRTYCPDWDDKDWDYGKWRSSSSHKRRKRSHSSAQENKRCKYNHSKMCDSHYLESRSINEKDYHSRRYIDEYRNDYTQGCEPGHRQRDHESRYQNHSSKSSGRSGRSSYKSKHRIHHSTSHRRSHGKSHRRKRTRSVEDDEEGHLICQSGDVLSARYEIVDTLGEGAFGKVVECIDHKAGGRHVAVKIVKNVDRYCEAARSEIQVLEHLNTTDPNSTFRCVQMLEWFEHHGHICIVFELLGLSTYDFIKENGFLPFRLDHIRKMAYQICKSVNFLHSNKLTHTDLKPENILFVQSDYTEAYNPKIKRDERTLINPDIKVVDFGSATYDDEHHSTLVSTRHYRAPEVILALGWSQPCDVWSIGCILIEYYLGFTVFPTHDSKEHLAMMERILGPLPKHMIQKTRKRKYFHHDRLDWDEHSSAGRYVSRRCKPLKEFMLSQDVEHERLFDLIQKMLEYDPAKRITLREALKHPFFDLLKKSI

[41] = target: MAP2K7 (human) (UniProt O14733)

Chain of CSNK1D (human) (P48730 whole entry, looked up): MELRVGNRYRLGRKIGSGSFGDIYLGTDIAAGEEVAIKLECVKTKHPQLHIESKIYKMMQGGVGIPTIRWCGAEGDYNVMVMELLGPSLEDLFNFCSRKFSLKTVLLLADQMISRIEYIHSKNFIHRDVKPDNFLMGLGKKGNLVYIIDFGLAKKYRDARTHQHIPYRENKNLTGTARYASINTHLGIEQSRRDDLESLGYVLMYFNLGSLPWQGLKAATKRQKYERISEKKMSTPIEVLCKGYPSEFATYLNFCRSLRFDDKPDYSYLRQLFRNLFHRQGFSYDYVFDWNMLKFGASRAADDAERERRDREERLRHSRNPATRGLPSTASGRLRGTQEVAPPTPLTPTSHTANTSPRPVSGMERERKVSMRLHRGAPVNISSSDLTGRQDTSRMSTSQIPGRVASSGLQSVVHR

With `Cn1c2ccccc2c2c3c(c4c5ccccc5n(CCC#N)c4c21)CNC3=O` the kinase still bound, per cent of control [1] was 35%, the kinase still bound, per cent of control [2] was 98% and the kinase still bound, per cent of control [3] was 93%. It also gave a kinase still bound, per cent of control [4] of 42%, a kinase still bound, per cent of control [5] of 58% and a kinase still bound, per cent of control [6] of 81%. For the same molecule, the kinase still bound, per cent of control [7] was 100%, the kinase still bound, per cent of control [8] was 84% and the kinase still bound, per cent of control [9] was 68%. The kinase still bound, per cent of control [10] was 12%, the kinase still bound, per cent of control [11] was 81% and the kinase still bound, per cent of control [12] was 11%. For the same molecule, the kinase still bound, per cent of control [13] was 8%, the kinase still bound, per cent of control [14] was 97% and the kinase still bound, per cent of control [15] was 8.9%. It also gave a kinase still bound, per cent of control [16] of 100%, a kinase still bound, per cent of control [17] of 62% and a kinase still bound, per cent of control [18] of 61%. For the same molecule, the kinase still bound, per cent of control [19] was 49%, the kinase still bound, per cent of control [20] was 52% and the kinase still bound, per cent of control [21] was 3.1%. It also gave a kinase still bound, per cent of control [22] of 0.15%, a kinase still bound, per cent of control [23] of 4.4% and a kinase still bound, per cent of control [24] of 15%. It also gave a kinase still bound, per cent of control [25] of 100%, a kinase still bound, per cent of control [26] of 100% and a kinase still bound, per cent of control [27] of 3.8%. For the same molecule, the kinase still bound, per cent of control [28] was 88%, the kinase still bound, per cent of control [29] was 62% and the kinase still bound, per cent of control [30] was 7.7%. For the same molecule, the kinase still bound, per cent of control [31] was 96%, the kinase still bound, per cent of control [32] was 100% and the kinase still bound, per cent of control [33] was 93%. The kinase still bound, per cent of control [34] was 63%, the kinase still bound, per cent of control [35] was 66% and the kinase still bound, per cent of control [36] was 2%. It also gave a kinase still bound, per cent of control [37] of 72%, a kinase still bound, per cent of control [38] of 100% and a kinase still bound, per cent of control [39] of 97%. The kinase still bound, per cent of control [40] was 16% and the kinase still bound, per cent of control [41] was 79%.
